Laboratory results from patent US20050148534A1, “Small molecule compositions and methods for increasing drug efficiency using compositions thereof” (priority 2003, published 2005).
Like-named read-outs stand apart in the source and are kept apart here.

How the values were obtained:
[1] = molecular target: T1, Human thymidine kinase 1 (TK1) (Homo sapiens, UniProt P04183); experiment: Thymidine kinase coupled (kinetic) ATP depletion assay; assay type: biochemical; settings: initial velocity relative to thymidine; 100 μM conjugate
T1 construct: His tag (from pET28b(+)) (N); made in house; host or cells: E. coli BL21-codon plus
T1 sequence (P04183 1-234): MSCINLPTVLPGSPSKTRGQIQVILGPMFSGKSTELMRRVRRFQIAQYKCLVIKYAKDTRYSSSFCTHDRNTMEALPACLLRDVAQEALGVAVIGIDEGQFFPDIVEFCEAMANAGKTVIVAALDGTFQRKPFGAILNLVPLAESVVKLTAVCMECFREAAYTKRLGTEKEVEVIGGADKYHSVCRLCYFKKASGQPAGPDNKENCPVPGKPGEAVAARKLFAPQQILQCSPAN
Experimental: Thymidine kinase, viral thymidine kinase, TK-1 deoxycytidine kinase, and deoxyguanosine kinase activities are determined by subjecting a first end of a linker used in synthesizing linker-substrate constructs to a first test. The first test may involve observing ADP formation, an obligatory co-product of phospho group transfer from ATP which is catalyzed by the kinase to the C5′ hydroxyl group or its equivalent in the nucleoside or nucleoside analog. Formation of ADP is followed by a coupled enzyme assay well known in the art. ADP, formed from kinase phosphorylation, is used by pyruvate kinase to generate pyruvate from phosphoenolpyruvate which in turn is converted to lactate by lactate dehydrogenase. The lactate results in the consumption of NADH which is followed spectrophotometrically. The rate of nucleoside phosphorylation is then directly related to the rate of decrease in the observed NADH signal.
TK1 was amplified using PCR with forward primer 5′-[…]-3′ and reverse primer 5′-[…]-3′. The PCR product was digested with Nde I and Hind III. An N-terminal His-tagged TK1 construct, TK1/pET28b(+), was generated by subcloning TK1 into the Nde I and Hind III sites of prokaryotic expression vector pET28b (+) (Novagen, San Diego, Calif.). TK1 was expressed from TK1/pET28b(+) using E. coli strain BL21-codon plus (Stratagene, San Diego, Calif.) and purified by Ni column chromatography.
A coupled (kinetic) ATP depletion assay was developed to measure thymidine kinase activity. The reaction contained 100 mM Tris HCl, pH 7.5, 20 mM MgCl2, 100 mM KCl, 0.4 mM PEP, 0.2 mM NADH, Pyruvate Kinase (0.7 units)/Lactate Dehydrogenase (1.0 unit) (Sigma #PO294), 2.5-10 μg Thymidine Kinase, 100 μM thymidine or thymidine-drug conjugate in a volume of 75 μl. ATP (5 mM in 25 μl H2O) was added to initiate the reaction and the velocity of ATP depletion was monitored at 340 nm continuously for 15 minutes.

tubulin = experiment: Fluorescence-based microtubule polymerization assay (MPA); assay type: biochemical; settings: mean percentage of paclitaxel or vinblastine activity; 0.75-10 micromolar
Outline: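 Tubulin polymerization was followed by fluorescence (ex 360/em 405 nm) in a commercial kit with 1 mg/ml BSA added to every assay, glycerol being omitted for paclitaxel conjugates. Parent drugs and conjugates were tested at 0.75, 1.5, 3 and 10 micromolar final. Curves from the linear range of the dose responses were compared.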

MCF-7 breast carcinoma [2] = experiment: Cytotoxicity assay (monolayer), MCF-7; assay type: cell-based; settings: Homo sapiens, MCF7
Experimental: (§1) Statistical Assoc., 81, 991-999, 1986.
(§2) Monolayer assays with tumor cell lines (MCF-7 breast carcinoma and HT-29 colorectal carcinoma from ATCC) were carried out in triplicate in 96-well plates with RPMI1640 medium containing 5% fetal bovine serum, 100 U/ml penicillin and 100 μg/ml streptomycin. Normal human foreskin fibroblasts (HFF #CC-2509) were from Cambrex and were cultured in FGM-2 medium. Exponentially growing cells (5,000 MCF-7 or HT-29; 1,500 HFF) were plated in 100 μl medium and incubated overnight (5% CO2, 37° C.). Compounds (20 pM to 20 μM final concentration, 6-8 doses) and vehicle (DMSO) controls were added and the incubation was continued for an additional 72 hours. Final cell density was determined by incubating cultures with 25 μl AlamarBlue reagent (BioSource, Camarillo, Calif.) for 4 hours, followed by determination of fluorescence at excitation of 544 nm and emission of 590 nm with a SpectroMax Gemini EM fluorescence plate reader (Molecular Devices, Sunnyvale, Calif.). EC50 values were generated from dose-response curves by a 4-parameter method using Softmax PRO software. Mean EC50s (±SD) represent the average of all tests carried out for all lots of a given compound. […] Statistical Assoc., 81, 991-999 (1986).

HUVEC = experiment: Cytotoxicity assay (monolayer), HUVEC; assay type: cell-based; settings: Homo sapiens, read-out: HUVEC (EC50 Ave) ML
[3] = system: Normal human foreskin fibroblasts (HFF); experiment: Cytotoxicity assay (monolayer), HFF; assay type: cell-based; settings: Fibroblast
Experimental: as §1, §2

MCF7 = experiment: Cytotoxicity assay, MCF7 SSA (SSA not explained); assay type: cell-based; settings: Homo sapiens
HT29 = experiment: Cytotoxicity assay, HT29 SSA (SSA not explained); assay type: cell-based; settings: Homo sapiens, HT-29; read-out: HT29 (EC50 Ave) SSA
[4] = system: breast carcinoma, colon carcinoma and leukemia; experiment: Cytotoxicity of drug-thymidine conjugates (Example 22); assay type: cell-based
[5] = Cytotoxicity assay (soft agar), MCF-7; settings: human
MCF-7 breast carcinoma [6] = experiment: Cytotoxicity assay (soft agar), MCF-7; settings: Homo sapiens
[7] = Cytotoxicity assay (soft agar), HT-29; settings: human
[8] = system: HT-29 colorectal carcinoma; experiment: Cytotoxicity assay (soft agar), HT-29; settings: Homo sapiens

Q: Which results are given for `CC(=O)O[C@H]1C(=O)[C@@]2(C)[C@H]([C@H](OC(=O)c3ccccc3)[C@]3(O)C[C@H](OC(=O)[C@H](O)[C@@H](NC(=O)c4ccccc4)c4ccccc4)C(C)=C1C3(C)C)[C@]1(OC(C)=O)CO[C@@H]1C[C@@H]2O` [Paclitaxel]?
A: Ave. TK1 Kinase Act. [1]: A (A<20); Ave. MPA Act (tubulin): C (C>100); EC50 (MCF-7 breast carcinoma [2]; mean ± SD, read-out: MCF-7 Monolayer EC50): 5 ± 2 nM; EC50 (MCF-7 breast carcinoma [2]; monolayer, 72 hours, AlamarBlue, read-out: MCF7 (EC50 Ave) ML): < 100 nM; EC50 (HUVEC): < 100 nM; EC50 ([3]; mean ± SD, read-out: HFF Monolayer EC50): 9 ± 5 nM; EC50 ([3]; monolayer, 72 hours, AlamarBlue, read-out: HFF (EC50 Ave) ML): < 100 nM; EC50 (MCF7): < 100 nM; EC50 (HT29): < 100 nM; EC50 [4]: 5 to 8 nM; selectivity ratio [5]: 1.4; EC50 (MCF-7 breast carcinoma [6]; MCF7, read-out: MCF7 (EC50 Ave) SA): < 100 nM; EC50 (MCF-7 breast carcinoma [6]; MCF7, read-out: MCF-7 Soft Agar EC50): 6 ± 3 nM; selectivity ratio [7]: 0.6; EC50 ([8]; HT-29, read-out: HT29 (EC50 Ave) SA): < 100 nM; EC50 ([8]; HT-29, read-out: HT-29 Soft Agar EC50): 15 ± 2 nM
